These results are taken from PubChem BioAssay AID328 (DTP/NCI, 2004).

Several values for one entry are separate records, joined by “and”; a condition that tells them apart may be missing. Identical values can stand only once. Toxic doses and inconclusive results are not listed.

The assay has as its system BDF1 mice, P388 leukemia ip, median survival T/C. In words: NCI In Vivo Anticancer Drug Screen. Data for tumor model P388 Leukemia (intraperitoneal) in B6D2F1 (BDF1) mice. Conditions: endpoint: median survival time, higher = longer survival. The essentials:
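Compound-treated tumour-bearing mice were compared with vehicle-treated controls. Survival was recorded, and the value is the treated-group measurement divided by the control-group measurement (T/C).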

[1] abbreviates: dose: 50.0 mg/kg/injection, schedule: Q01DX009 (ip), vehicle: saline with Tween-80.
[2] abbreviates: dose: 100.0 mg/kg/injection, schedule: Q01DX009 (ip), vehicle: saline with Tween-80.
Setting [3] is: dose: 200.0 mg/kg/injection, schedule: Q01DX009 (ip), vehicle: saline with Tween-80.
The mark [4] stands for this setting: dose: 100.0 mg/kg/injection, schedule: Q04DX003 (ip), vehicle: saline with Tween-80.
Where [5] appears, read: dose: 200.0 mg/kg/injection, schedule: Q04DX003 (ip), vehicle: saline with Tween-80.
[6] abbreviates: dose: 25.0 mg/kg/injection, schedule: Q01DX009 (ip), vehicle: saline with Tween-80.
Where [7] appears, read: dose: 400.0 mg/kg/injection, schedule: Q01DX009 (ip), vehicle: saline with Tween-80.

As to `COc1c2c(c(OC)c3ccccc13)C(=O)c1ccccc1C2=O`, the T/C (dose: 25.0 mg/kg/injection, schedule: Q01DX005 (ip), vehicle: saline) is 115 % of control; the T/C (dose: 50.0 mg/kg/injection, schedule: Q01DX005 (ip), vehicle: saline) is 87 % of control; the T/C (dose: 100.0 mg/kg/injection, schedule: Q01DX005 (ip), vehicle: saline) is 95 % of control; the T/C (dose: 200.0 mg/kg/injection, schedule: Q01DX005 (ip), vehicle: saline) is 93 % of control.
In the case of `CNC(=S)ON1CCCCC1`, the T/C is, setting by setting: under setting [1], 116 % of control; under setting [2], 114 % of control; under setting [3], 121 % of control.
Consider `CN(C)N=Nc1ccc(NC(N)=O)cc1`, for which the T/C (dose: 25.0 mg/kg/injection, schedule: Q04DX003 (ip), vehicle: saline + Tween-80 + alcohol) is 112 % of control.
With `CCCCCCCCCCCCCCCCS(=O)(=O)CCO`, the T/C runs as follows: under setting [4], 104 % of control; under setting [5], 91 % of control.
Regarding `O=C(NC(=O)c1c(F)cccc1F)Nc1ccc(Cl)c2ccccc12`, the T/C runs as follows: under setting [6], 91 % of control; under setting [1], 100 % of control; under setting [2], 90 % of control.
Consider `CC(=N\O)/C(C)=N/O.CC(=N\O)/C(C)=N/O.[Br][Rh][Br]`, for which the T/C (dose: 25.0 mg/kg/injection, schedule: Q01DX009 (ip), vehicle: saline) was 99 % of control; the T/C (dose: 50.0 mg/kg/injection, schedule: Q01DX009 (ip), vehicle: saline) was 100 % of control; the T/C (dose: 100.0 mg/kg/injection, schedule: Q01DX009 (ip), vehicle: saline) was 119 % of control and 92 % of control; the T/C (dose: 200.0 mg/kg/injection, schedule: Q01DX009 (ip), vehicle: saline) was 110 % of control and 99 % of control and 100 % of control; the T/C (dose: 400.0 mg/kg/injection, schedule: Q01DX009 (ip), vehicle: saline) was 100 % of control.
As for `CCN(CC)CC(Cl)CN(CC)CC`, the T/C is 110 % of control (dose: 50.0 mg/kg/injection, schedule: Q04DX003 (ip), vehicle: saline with Tween-80); 105 % of control under setting [4]; 100 % of control under setting [5].
As for `c1csc(C2Nc3ccccc3N2)c1`, the T/C by setting is: under setting [1], 105 % of control; under setting [2], 99 % of control; under setting [3], 119 % of control.
In the case of `O=[N+]([O-])c1cc2c(c([N+](=O)[O-])c1)OCOC2`, the T/C reads like this: under setting [6], 95 % of control; under setting [1], 95 % of control; under setting [2], 86 % of control; under setting [4], 100 % of control; under setting [5], 95 % of control.
Regarding `CN(C)CC/C=C1\c2ccccc2Sc2ccc(C(F)(F)F)cc21`, the T/C runs as follows: (dose: 9.2 mg/kg/injection, schedule: Q04DX003 (ip), vehicle: saline) 112 % of control and 113 % of control; (dose: 21.0 mg/kg/injection, schedule: Q04DX003 (ip), vehicle: saline) 116 % of control; (dose: 29.0 mg/kg/injection, schedule: Q04DX003 (ip), vehicle: saline) 100 % of control; (dose: 65.0 mg/kg/injection, schedule: Q01DX001 (ip), vehicle: saline) 122 % of control.
On to `CCOC(=O)C1CN(Cc2ccccc2)CCC1=O` (stereo not given), for which the T/C is, setting by setting: (dose: 50.0 mg/kg/injection, schedule: Q01DX001 (ip), vehicle: saline) 104 % of control; (dose: 100.0 mg/kg/injection, schedule: Q01DX001 (ip), vehicle: saline) 95 % of control; (dose: 200.0 mg/kg/injection, schedule: Q01DX001 (ip), vehicle: saline) 90 % of control.
With `C[C@@H]1C[C@H]2CC[C@H](O2)[C@H](C)C(=O)O[C@@H](C)C[C@@H]2CC[C@@H](O2)[C@@H](C)C(=O)O[C@H](C)C[C@H]2CC[C@H](O2)[C@H](C)C(=O)O[C@@H](C)C[C@@H]2CC[C@@H](O2)[C@@H](C)C(=O)O1`, the T/C reads like this: under setting [1], 90 % of control; under setting [2], 109 % of control; under setting [4], 104 % of control; under setting [5], 86 % of control.
For the compound `Oc1ccc2ccccc2c1N=Nc1ccc(Cl)cc1`, the T/C runs as follows: under setting [2], 104 % of control; under setting [3], 95 % of control; under setting [7], 95 % of control.
With `O=C(/C=C/c1ccccc1Cl)NCC(O)CO` (stereo not given), the T/C is, setting by setting: under setting [1], 100 % of control; under setting [2], 100 % of control; under setting [3], 95 % of control; (dose: 400.0 mg/kg/injection, schedule: Q01DX009 (ip), vehicle: other) 91 % of control; under setting [7], 90 % of control.
Take `COc1ccc(NC(=O)Oc2ccccc2Cc2ccccc2)cc1`: the T/C was 100 % of control (dose: 100.0 mg/kg/injection, schedule: Q04DX003 (ip), vehicle: Klucel (hydroxypropylcellulose) (HPC)) and 95 % of control (dose: 200.0 mg/kg/injection, schedule: Q04DX003 (ip), vehicle: Klucel (hydroxypropylcellulose) (HPC)).
As for `O=[N+]([O-])c1ccc(NS(=O)(=O)c2cc(Cl)ccc2Cl)c([N+](=O)[O-])c1`, the T/C under setting [1] was 105 % of control, the T/C under setting [2] was 102 % of control and the T/C under setting [3] was 110 % of control.
For the compound `CCCCCCCOc1ccc(OCCCC[N+]2(CC)CCCCC2)cc1`, the T/C (dose: 6.25 mg/kg/injection, schedule: Q01DX009 (ip), vehicle: saline) is 100 % of control.
As for `COc1ccc(/C=C/c2ccc3ccccc3[n+]2C)cc1OC`, the T/C by setting is: (dose: 18.75 mg/kg/injection, schedule: Q01DX009 (ip), vehicle: saline) 150 % of control; (dose: 37.5 mg/kg/injection, schedule: Q01DX009 (ip), vehicle: saline) 160 % of control.
Take `C(=Nc1ccccc1)c1ccc(C=Nc2ccccc2)cc1`: the T/C is 110 % of control under setting [1]; 105 % of control under setting [2]; 104 % of control under setting [4]; 100 % of control under setting [3]; 109 % of control under setting [5]; 100 % of control (dose: 400.0 mg/kg/injection, schedule: Q04DX003 (ip), vehicle: saline with Tween-80).
As for `COc1cc(O)c2c(c1)OC(c1ccc(OC)c(O)c1)CC2=O` (stereo not given), the T/C (dose: 12.5 mg/kg/injection, schedule: Q01DX009 (ip), vehicle: alcohol) was 117 % of control; the T/C (dose: 50.0 mg/kg/injection, schedule: Q01DX009 (ip), vehicle: alcohol) was 109 % of control; the T/C (dose: 100.0 mg/kg/injection, schedule: Q01DX009 (ip), vehicle: alcohol) was 92 % of control.
